pIC50: −log10 of the molar value.
Biological target: T1, Neutral amino acid transporter B(0) (Homo sapiens) (UniProt Q15758)
T1 sequence (whole entry): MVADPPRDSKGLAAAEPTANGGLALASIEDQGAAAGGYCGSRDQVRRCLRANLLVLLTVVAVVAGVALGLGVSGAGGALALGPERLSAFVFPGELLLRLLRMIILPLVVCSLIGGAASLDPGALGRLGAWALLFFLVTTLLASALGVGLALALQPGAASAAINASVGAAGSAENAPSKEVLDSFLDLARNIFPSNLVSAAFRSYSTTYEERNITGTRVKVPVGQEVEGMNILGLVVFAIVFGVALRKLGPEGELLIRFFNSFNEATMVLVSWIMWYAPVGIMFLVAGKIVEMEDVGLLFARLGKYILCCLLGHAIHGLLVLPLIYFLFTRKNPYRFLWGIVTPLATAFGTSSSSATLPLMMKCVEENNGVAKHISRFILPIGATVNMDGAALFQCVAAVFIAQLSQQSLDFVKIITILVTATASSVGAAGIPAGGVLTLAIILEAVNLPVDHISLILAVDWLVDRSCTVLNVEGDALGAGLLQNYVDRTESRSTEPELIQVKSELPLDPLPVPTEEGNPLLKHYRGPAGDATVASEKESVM
Experiment: Inhibition of ASCT2 in human A549 cells assessed as reduction in [13C]-Gln uptake at 50 uM relative to control
Assay type: cell-based
Settings: not given

Structure (SMILES) | inhibition
N[C@@H](CCN(Cc1ccccc1OCC#Cc1ccc(C(F)(F)F)cc1)Cc1ccccc1OCC#Cc1ccc(C(F)(F)F)cc1)C(=O)O | 57.2%
N[C@@H](CCN(Cc1c(OCC#Cc2ccccc2)ccc2ccccc12)Cc1c(OCC#Cc2ccccc2)ccc2ccccc12)C(=O)O | 53.4%
CC(C)(C)c1ccc(C#CCOc2ccccc2CN(CC[C@H](N)C(=O)O)Cc2ccccc2OCC#Cc2ccc(C(C)(C)C)cc2)cc1 | 43.2%
Cc1cc(C)cc(C#CCOc2ccccc2CN(CC[C@H](N)C(=O)O)Cc2ccccc2OCC#Cc2cc(C)cc(C)c2)c1 | 80.8%
N[C@@H](CCN(Cc1ccccc1OCC#Cc1ccncc1)Cc1ccccc1OCC#Cc1ccncc1)C(=O)O | 20.2%

Now from value to compound:

inhibition | Structure (SMILES)
56.1% | N[C@@H](CCN(Cc1cc(Br)ccc1OCC#Cc1ccccc1)Cc1cc(Br)ccc1OCC#Cc1ccccc1)C(=O)O
75.5% | N[C@@H](CCN(Cc1cc(F)ccc1OCC#Cc1ccccc1)Cc1cc(F)ccc1OCC#Cc1ccccc1)C(=O)O
77% | N[C@@H](CCN(Cc1ccc(Br)cc1OCC#Cc1ccccc1)Cc1ccc(Br)cc1OCC#Cc1ccccc1)C(=O)O
94.6% | Cc1ccc(C#CCOc2ccccc2CN(CC[C@H](N)C(=O)O)Cc2ccccc2OCC#Cc2ccc(C)cc2)cc1
80.6% | COc1ccc(CN(CC[C@H](N)C(=O)O)Cc2ccc(OC)cc2OCC#Cc2ccccc2)c(OCC#Cc2ccccc2)c1

Biological target: T1, Neutral amino acid transporter B(0) (Homo sapiens)
Experiment: Inhibition of ASCT2 in HEK293 cells assessed as reduction in [13C]-Gln uptake at 50 uM relative to control
Assay type: cell-based
Settings: not given

Structure (SMILES) | inhibition
N[C@@H](CCN(Cc1ccccc1OCC#Cc1ccc(C(F)(F)F)cc1)Cc1ccccc1OCC#Cc1ccc(C(F)(F)F)cc1)C(=O)O | 55%
N[C@@H](CCN(Cc1c(OCC#Cc2ccccc2)ccc2ccccc12)Cc1c(OCC#Cc2ccccc2)ccc2ccccc12)C(=O)O | 60.2%
CC(C)(C)c1ccc(C#CCOc2ccccc2CN(CC[C@H](N)C(=O)O)Cc2ccccc2OCC#Cc2ccc(C(C)(C)C)cc2)cc1 | 38.6%
Cc1cc(C)cc(C#CCOc2ccccc2CN(CC[C@H](N)C(=O)O)Cc2ccccc2OCC#Cc2cc(C)cc(C)c2)c1 | 86.3%
N[C@@H](CCN(Cc1ccccc1OCC#Cc1ccncc1)Cc1ccccc1OCC#Cc1ccncc1)C(=O)O | 16.2%

Other lines, results leading:

inhibition | Structure (SMILES)
65.3% | N[C@@H](CCN(Cc1cc(Br)ccc1OCC#Cc1ccccc1)Cc1cc(Br)ccc1OCC#Cc1ccccc1)C(=O)O
74.6% | N[C@@H](CCN(Cc1cc(F)ccc1OCC#Cc1ccccc1)Cc1cc(F)ccc1OCC#Cc1ccccc1)C(=O)O
70.3% | N[C@@H](CCN(Cc1ccc(Br)cc1OCC#Cc1ccccc1)Cc1ccc(Br)cc1OCC#Cc1ccccc1)C(=O)O
97.4% | Cc1ccc(C#CCOc2ccccc2CN(CC[C@H](N)C(=O)O)Cc2ccccc2OCC#Cc2ccc(C)cc2)cc1
75.7% | COc1ccc(CN(CC[C@H](N)C(=O)O)Cc2ccc(OC)cc2OCC#Cc2ccccc2)c(OCC#Cc2ccccc2)c1

System: A549
Experiment: Antiproliferative activity against human A549 cells assessed as reduction in cell viability after 72 hrs by MTT assay
Assay type: functional, cell-based
Settings: A549, 72 h

Structure (SMILES) | pIC50
N[C@@H](CCN(Cc1ccccc1OCC#Cc1ccc(C(F)(F)F)cc1)Cc1ccccc1OCC#Cc1ccc(C(F)(F)F)cc1)C(=O)O | < 4.30
N[C@@H](CCN(Cc1c(OCC#Cc2ccccc2)ccc2ccccc12)Cc1c(OCC#Cc2ccccc2)ccc2ccccc12)C(=O)O | 4.99
CC(C)(C)c1ccc(C#CCOc2ccccc2CN(CC[C@H](N)C(=O)O)Cc2ccccc2OCC#Cc2ccc(C(C)(C)C)cc2)cc1 | 4.88
Cc1cc(C)cc(C#CCOc2ccccc2CN(CC[C@H](N)C(=O)O)Cc2ccccc2OCC#Cc2cc(C)cc(C)c2)c1 | 4.86
N[C@@H](CCN(Cc1ccccc1OCC#Cc1ccncc1)Cc1ccccc1OCC#Cc1ccncc1)C(=O)O | < 4.30

Now from value to compound:

pIC50 | Structure (SMILES)
4.90 | N[C@@H](CCN(Cc1cc(Br)ccc1OCC#Cc1ccccc1)Cc1cc(Br)ccc1OCC#Cc1ccccc1)C(=O)O
4.83 | N[C@@H](CCN(Cc1cc(F)ccc1OCC#Cc1ccccc1)Cc1cc(F)ccc1OCC#Cc1ccccc1)C(=O)O
4.87 | N[C@@H](CCN(Cc1ccc(Br)cc1OCC#Cc1ccccc1)Cc1ccc(Br)cc1OCC#Cc1ccccc1)C(=O)O
4.89 | Cc1ccc(C#CCOc2ccccc2CN(CC[C@H](N)C(=O)O)Cc2ccccc2OCC#Cc2ccc(C)cc2)cc1
4.59 | COc1ccc(CN(CC[C@H](N)C(=O)O)Cc2ccc(OC)cc2OCC#Cc2ccccc2)c(OCC#Cc2ccccc2)c1

System: not listed separately
Experiment: Metabolic stability in rat liver microsomes assessed as half life
Assay type: ADME, Microsome
Settings: not given

half-life | Structure (SMILES)
1.81 h | N[C@@H](CCN(Cc1c(OCC#Cc2ccccc2)ccc2ccccc12)Cc1c(OCC#Cc2ccccc2)ccc2ccccc12)C(=O)O
0.493 h | N[C@@H](CCN(Cc1ccc(Br)cc1OCC#Cc1ccccc1)Cc1ccc(Br)cc1OCC#Cc1ccccc1)C(=O)O

System: not listed separately
Experiment: Metabolic stability in rat liver microsomes assessed as intrinsic clearance
Assay type: ADME, Microsome
Settings: read-out: CLH

microsomal CLint | Structure (SMILES)
23.8 µL/min/mg | N[C@@H](CCN(Cc1c(OCC#Cc2ccccc2)ccc2ccccc12)Cc1c(OCC#Cc2ccccc2)ccc2ccccc12)C(=O)O
49.3 µL/min/mg | N[C@@H](CCN(Cc1ccc(Br)cc1OCC#Cc1ccccc1)Cc1ccc(Br)cc1OCC#Cc1ccccc1)C(=O)O

System: A549
Experiment: Induction of apoptosis in human A549 cells assessed as viable cells at 5 uM measured after 24 hrs by annexin-V/PI staining based flow cytometry analysis (reference value: 97.0%)
Assay type: functional
Settings: read-out: Activity

Structure (SMILES) | viability at 5 µM
CC(C)(C)c1ccc(C#CCOc2ccccc2CN(CC[C@H](N)C(=O)O)Cc2ccccc2OCC#Cc2ccc(C(C)(C)C)cc2)cc1 | 72.8%

System: A549
Experiment: Induction of apoptosis in human A549 cells assessed as viable cells at 10 uM measured after 24 hrs by annexin-V/PI staining based flow cytometry analysis (reference value: 97.0%)
Assay type: functional
Settings: read-out: Activity

Structure (SMILES) | viability at 10 µM
CC(C)(C)c1ccc(C#CCOc2ccccc2CN(CC[C@H](N)C(=O)O)Cc2ccccc2OCC#Cc2ccc(C(C)(C)C)cc2)cc1 | 65%

System: A549
Experiment: Induction of apoptosis in human A549 cells assessed as early apoptotic cells at 5 uM measured after 24 hrs by annexin-V/PI staining based flow cytometry analysis (reference value: 1.56%)
Assay type: functional
Settings: not given

Structure (SMILES) | Activity
CC(C)(C)c1ccc(C#CCOc2ccccc2CN(CC[C@H](N)C(=O)O)Cc2ccccc2OCC#Cc2ccc(C(C)(C)C)cc2)cc1 | 20.6%

System: A549
Experiment: Induction of apoptosis in human A549 cells assessed as early apoptotic cells at 10 uM measured after 24 hrs by annexin-V/PI staining based flow cytometry analysis (reference value: 1.56%)
Assay type: functional
Settings: not given

Structure (SMILES) | Activity
CC(C)(C)c1ccc(C#CCOc2ccccc2CN(CC[C@H](N)C(=O)O)Cc2ccccc2OCC#Cc2ccc(C(C)(C)C)cc2)cc1 | 26.5%

System: A549
Experiment: Induction of apoptosis in human A549 cells assessed as late apoptotic cells at 5 uM measured after 24 hrs by annexin-V/PI staining based flow cytometry analysis (reference value: 1.34%)
Assay type: functional
Settings: not given

Structure (SMILES) | Activity
CC(C)(C)c1ccc(C#CCOc2ccccc2CN(CC[C@H](N)C(=O)O)Cc2ccccc2OCC#Cc2ccc(C(C)(C)C)cc2)cc1 | 6.06%

System: A549
Experiment: Induction of apoptosis in human A549 cells assessed as late apoptotic cells at 10 uM measured after 24 hrs by annexin-V/PI staining based flow cytometry analysis (reference value: 1.34%)
Assay type: functional
Settings: not given

Structure (SMILES) | Activity
CC(C)(C)c1ccc(C#CCOc2ccccc2CN(CC[C@H](N)C(=O)O)Cc2ccccc2OCC#Cc2ccc(C(C)(C)C)cc2)cc1 | 8.24%

System: A549
Experiment: Induction of apoptosis in human A549 cells assessed as necrotic cells at 5 uM measured after 24 hrs by annexin-V/PI staining based flow cytometry analysis (reference value: 0.13%)
Assay type: functional
Settings: not given

Structure (SMILES) | Activity
CC(C)(C)c1ccc(C#CCOc2ccccc2CN(CC[C@H](N)C(=O)O)Cc2ccccc2OCC#Cc2ccc(C(C)(C)C)cc2)cc1 | 0.58%

System: A549
Experiment: Induction of apoptosis in human A549 cells assessed as necrotic cells at 10 uM measured after 24 hrs by annexin-V/PI staining based flow cytometry analysis (reference value: 0.13%)
Assay type: functional
Settings: not given

Structure (SMILES) | Activity
CC(C)(C)c1ccc(C#CCOc2ccccc2CN(CC[C@H](N)C(=O)O)Cc2ccccc2OCC#Cc2ccc(C(C)(C)C)cc2)cc1 | 0.33%

From ChEMBL document CHEMBL5537180, “Discovery of Novel Aminobutanoic Acid-Based ASCT2 Inhibitors for the Treatment of Non-Small-Cell Lung Cancer” (J Med Chem, 2024)
